Experimental data as given in the NIST ThermoML archive (doi:10.1021/je501054c).
Where “and” joins values, the source holds several entries; their conditions need not be identical. Equal entries are not always repeated.

Columns and labels:
[1] = mn = molality of the nth substance listed, in mol/kg; settings: 100 kPa, Liquid; for viscosity: Capillary tube (Ostwald / Ubbelohde) method; for mass density: Vibrating tube method
[2] = 100 kPa, Liquid; for mass density: Vibrating tube method

CCCCCn1cc[n+](C)c1.[Br-] [1-pentyl-3-methylimidazolium bromide] + CC#N
[1]
Settings | mass density, 298.15 K [kg/m3] | mass density, 303.15 K [kg/m3] | mass density, 308.15 K [kg/m3] | mass density, 313.15 K [kg/m3] | viscosity, 298.15 K [mPa·s]
m1 = 0.03 | 779.11 | 770.63 | 762.52 | 755.09 | –
m1 = 0.0301 | – | – | – | – | 0.3532
m1 = 0.0509 | 780.82 | 772.34 | 764.26 | 756.83 | –
m1 = 0.0511 | – | – | – | – | 0.3605
m1 = 0.0721 | 782.52 | 774.06 | 765.99 | 758.59 | –
m1 = 0.0726 | – | – | – | – | 0.366
m1 = 0.1016 | 784.87 | 776.42 | 768.38 | 760.99 | –
m1 = 0.1026 | – | – | – | – | 0.3724
m1 = 0.123 | 786.55 | 778.11 | 770.11 | 762.71 | –
m1 = 0.1245 | – | – | – | – | 0.3782
m1 = 0.1434 | 788.15 | 779.71 | 771.7 | 764.33 | –
m1 = 0.1455 | – | – | – | – | 0.3814
m1 = 0.1628 | 789.62 | 781.22 | 773.22 | 765.86 | –
m1 = 0.1655 | – | – | – | – | 0.3873
m1 = 0.1944 | 792 | 783.62 | 775.67 | 768.32 | –
m1 = 0.1983 | – | – | – | – | 0.3928
m1 = 0.211 | 793.26 | 784.87 | 776.92 | 769.58 | –
m1 = 0.2155 | – | – | – | – | 0.3975
m1 = 0.2313 | 794.76 | 786.39 | 778.44 | 771.12 | –
m1 = 0.2367 | – | – | – | – | 0.4016

CCCCCCn1cc[n+](C)c1.[Br-] [3-hexyl-1-methyl-1H-imidazolium bromide] + CC#N
[1]
Settings | mass density, 298.15 K [kg/m3] | mass density, 303.15 K [kg/m3] | mass density, 308.15 K [kg/m3] | mass density, 313.15 K [kg/m3] | viscosity, 298.15 K [mPa·s]
m1 = 0.0208 | 778.37 | 773.15 | 763.14 | 754.27 | –
m1 = 0.0209 | – | – | – | – | 0.353
m1 = 0.0449 | 780.33 | 775.12 | 765.12 | 756.27 | –
m1 = 0.0451 | – | – | – | – | 0.3625
m1 = 0.0648 | 781.93 | 776.74 | 766.75 | 757.91 | –
m1 = 0.0653 | – | – | – | – | 0.367
m1 = 0.0817 | 783.29 | 778.1 | 768.12 | 759.29 | –
m1 = 0.0824 | – | – | – | – | 0.372
m1 = 0.1001 | 784.72 | 779.55 | 769.58 | 760.76 | –
m1 = 0.1011 | – | – | – | – | 0.3774
m1 = 0.124 | 786.57 | 781.42 | 771.48 | 762.66 | –
m1 = 0.1255 | – | – | – | – | 0.3842
m1 = 0.1424 | 788 | 782.85 | 772.92 | 764.1 | –
m1 = 0.1445 | – | – | – | – | 0.3882
m1 = 0.1649 | 789.72 | 784.57 | 774.66 | 765.86 | –
m1 = 0.1676 | – | – | – | – | 0.3937
m1 = 0.1832 | 791.1 | 785.97 | 776.06 | 767.28 | –
m1 = 0.1866 | – | – | – | – | 0.3982
m1 = 0.2011 | 792.44 | 787.33 | 777.41 | 768.63 | –
m1 = 0.2052 | – | – | – | – | 0.4022

CC#N [acetonitrile]
Settings | viscosity [mPa·s]
[2], 298.15 K, Capillary tube (Ostwald / Ubbelohde) method | 0.343

[2]
Settings | mass density
298.15 K | 776.65 kg/m3
303.15 K | 771.43 kg/m3 and 768.14 kg/m3
308.15 K | 761.45 kg/m3 [middle of 4 runs]
313.15 K | 755.34 kg/m3 [middle of 4 runs]
